Data as given in patent publication US20230128198A1, “NOVEL HETEROCYCLIC COMPOUNDS USEFUL AS AURORA A SELECTIVE INHIBITORS” (JACOBIO PHARMACEUTICALS CO., LTD., priority 2020, published 2023).

Assays:
[1] = tested on: NCI-H446 and NCI-H69 human small cell lung cancer xenograft model; experiment: In vivo anti-tumor efficacy, xenograft model; design: species or system BALB/c nude mice; conditions: 15 mg/kg po., BID × 10 days, QD × 19 days, treatment 29 days
Method: This study is to examine the anti-tumor efficacy of test compounds in NCI-H446 and NCI-H69 human small cell lung cancer xenograft model in BALB/c nude mice. Each mouse was inoculated subcutaneously at the right flank region with NCI-H446 (3×10^6) and NCI-H69 cells (5×10^6) in 0.1 mL of PBS and Matrigel (1:1) for tumor development. The mouse were randomized according to tumor size and weight, the treatment began when the mean tumor size reached 100-200 mm^3. Anti-tumor activity was assessed according to relative tumor inhibition rate (TGI).
Tumor volumes were measured in two dimensions using a caliper, and the volume was expressed in mm^3 using the formula: V=0.5a×b^2 where a and bare the long and short diameters of the tumor, respectively. Statistical analysis of difference in tumor volume among the groups were performed using one-way ANOVA. All data was analyzed using SPSS 22.0 software. p<0.05 was considered to be statistically significant.

Aurora A = target: T1, Aurora A (Homo sapiens, UniProt O14965); experiment: Aurora A kinase assay (mobility shift assay); format: biochemical
T1 sequence (O14965 1-403): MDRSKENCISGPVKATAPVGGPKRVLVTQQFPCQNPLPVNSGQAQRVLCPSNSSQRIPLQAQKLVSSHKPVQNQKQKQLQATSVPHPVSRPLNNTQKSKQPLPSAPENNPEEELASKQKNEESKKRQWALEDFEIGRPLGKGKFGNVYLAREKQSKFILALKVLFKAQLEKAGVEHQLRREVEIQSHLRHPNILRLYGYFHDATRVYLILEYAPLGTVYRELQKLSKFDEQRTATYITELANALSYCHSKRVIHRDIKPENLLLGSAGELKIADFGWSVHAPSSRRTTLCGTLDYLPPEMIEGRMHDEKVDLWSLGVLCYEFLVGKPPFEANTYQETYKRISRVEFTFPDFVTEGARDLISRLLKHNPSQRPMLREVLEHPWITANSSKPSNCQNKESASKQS
Method: (§1) Example A: Evaluation of Aurora a and Aurora B Inhibitory Effect—Kinase Assay
(§2) The inhibitory activities of a test compound against Aurora A and Aurora B were measured according to the following method.
(§3) The IC50 value of Aurora A and Aurora B kinase was performed by Sundia MediTech Co. Ltd. using Mobility shift assay.
(§4) • (1) Prepare a 1× kinase buffer [50 mM 4-(2-hydroxyethyl)-1-piperazineethanesulfonic acid (HEPES), PH 7.5, 0.01% Brij-35, 10 mM MgCl2, 2 mM dithiothreitol (DTT)]. • (2) Prepare compound:
The testing compound was dissolved with DMSO. The testing compound was diluted up to 100× final concentration in a 384-well plate. Transfer 250 nL of the compound dilution to a 384-well assay plate using Echo 550. […] Add 10 μL of the 1× kinase buffer to the negative control well. • (5) The 384-well plate was centrifuged at 1000 rpm for 30 seconds and incubated at room temperature for 10 min. • (6) A mixture of ATP and Kinase substrate 21 with a final concentration of 25/15× was prepared by the 1× kinase buffer. • (7) Add 15 µL of the mixture of 25/15×ATP and kinase substrate solution 21 to start reaction. • (8) The 384-well plate was centrifuged at 1000 rpm for 30 seconds and incubated at room temperature. • (9) 30 µL of the stop and detection buffer was added to stop the kinase reaction and centrifuged at 1000 rpm for 30 seconds. • (10) Collect data on Caliper EZ ReaderII. […]

Aurora B = Aurora B (Homo sapiens, UniProt Q96GD4); experiment: Aurora B kinase assay (mobility shift assay); format: biochemical; conditions: ratio of Aurora B IC50 to Aurora A IC50
Method: as §1, §2, §3, §4
The testing compound was dissolved with DMSO. The testing compound was diluted up to 100× final concentration in a 384-well plate. Transfer 250 nL of the compound dilution to a 384-well assay plate using Echo 550. 100% DMSO of 250 nL was added to the negative control well and the positive control well. • (3) Prepare a 2.5× enzyme solution using the above 1× kinase buffer. • (4) Add 10 μL of the 2.5× enzyme solution to the compound well and the positive control well of the 384-well assay plate.
Conversion %_sample is conversion rate data of samples. Conversion %_min is mean value of negative control (conversion rate data without enzyme activation). Conversion %_max is mean positive control (conversion rate data without compound).
The log of concentration is on the X axis, and the percentage inhibition is on the Y axis.

PK in rat = format: in vivo, SD male rats
Method: The compounds were dissolved into 10% DMSO, 30% PEG400, and 60% saline to obtain a solution. SD male rats were given the compound orally and intravenously. Then plasma samples were collected at 0 hour (pre-dose), 0.25, 0.5, 1, 2, 4, 7, 24 hours post-dose. Plasma drug concentration was detected by LC-MS/MS. Pharmacokinetic parameters were calculated using WinNonlin's software with non-compartmental model.

Chain of Aurora B (Q96GD4 whole entry): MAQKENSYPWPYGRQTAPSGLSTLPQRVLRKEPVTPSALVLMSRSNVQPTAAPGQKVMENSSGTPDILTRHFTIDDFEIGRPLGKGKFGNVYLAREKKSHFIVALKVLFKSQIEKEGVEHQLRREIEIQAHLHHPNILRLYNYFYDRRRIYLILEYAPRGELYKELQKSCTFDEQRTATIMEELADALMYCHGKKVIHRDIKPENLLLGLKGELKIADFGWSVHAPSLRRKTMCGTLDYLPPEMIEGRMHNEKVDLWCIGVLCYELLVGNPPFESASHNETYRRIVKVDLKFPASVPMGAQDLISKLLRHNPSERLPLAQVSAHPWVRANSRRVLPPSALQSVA

Compound | TGI TV(%) [1] [%] | TV (mean ± sem) [1] [mm^3] | also measured
Cc1cc(Nc2nc(C[C@@]3(C(=O)O)CCN(Cc4cccc(Cl)c4F)[C@H](C)C3)ccc2F)[nH]n1 [Example 5, (2R,4R)-1-(3-chloro-2-fluorobenzyl)-4-((5-fluoro-6-((3-methyl-1H-pyrazol-5-yl)amino)pyridin-2-yl)methyl)-2-methylpiperidine-4-carboxylic acid] | 98 | 27 ± 5 | –
Cc1cc(Nc2cc(C)c(F)c(C[C@@]3(C(=O)O)CCN(Cc4cccc(Cl)c4F)[C@H](C)C3)n2)n[nH]1 [Example 49, (2R,4R)-1-(3-chloro-2-fluorobenzyl)-4-((3-fluoro-4-methyl-6-((5-methyl-1H-pyraz-ol-3-yl)amino)pyridin-2-yl)methyl)-2-methylpiperidine-4-carboxylic acid] | 90 | 160 ± 26 | –
CC(=O)c1cc(Nc2cc(C)[nH]n2)nc(CC2(C(=O)O)CCN(Cc3cccc(Cl)c3F)CC2)c1F [Example 69, 4-((4-acetyl-3-fluoro-6-((5-methyl-1H-pyrazol-3-yl)amino)pyridin-2-yl)methyl)-1-(3-chloro-2-fluorobenzyl) piperidine-4-carboxylic acid] | – | – | IC50 (Aurora A): 0.91 nM; IC50 Ratio Aur B/Aur A (Aurora B): 1444
Cc1cc(Nc2cc(Cl)c(F)c(C[C@@]3(C(=O)O)CCN(Cc4cccc(Cl)c4F)[C@H](C)C3)n2)n[nH]1 [Example 72, (2R,4R)-1-(3-chloro-2-fluorobenzyl)-4-((4-chloro-3-fluoro-6-((5-methyl-1H-pyrazol-3-yl)amino)pyridin-2-yl)methyl)-2-methylpiperidine-4-carboxylic acid] | 89 | 176 ± 25 | –
Cc1cc(Nc2nc(C[C@@]3(C(=O)O)CCN(Cc4cccc(Cl)c4F)[C@H](C)C3)cc(C)c2F)n[nH]1 [Example 78, (2R,4R)-1-(3-chloro-2-fluorobenzyl)-4-((5-fluoro-4-methyl-6-((5-methyl-1H-pyrazol-3-yl)amino)pyridin-2-yl)methyl)-2-methylpiperidine-4-carboxylic acid] | 96 | 65 ± 14 | –
Cc1cc(Nc2ccc(F)c(C[C@@]3(C(=O)O)CCN(Cc4cccc(Cl)c4F)[C@H](C)C3)n2)n[nH]1 [LY3295668] | – | – | CL (PK in rat; IV: 3 mg/kg): 1.52 mL/min/kg; Vss (PK in rat; IV: 3 mg/kg): 0.29 L/kg; AUClast (PK in rat; PO: 10 mg/kg): 91211 ng·h/mL; Cmax (PK in rat; PO: 10 mg/kg): 15033 ng/mL; t½ (PK in rat; PO: 10 mg/kg): 3.37 h; F % (PK in rat; PO: 10 mg/kg vs IV: 3 mg/kg): 81%
